Data taken from EP1420008B1, “Composition, in particular cosmetic, comprising a secondary or tertiary amine” (L'ORÉAL, priority 2002, dated 2004).

How the values were obtained:
[1] = tested on: jonction nerf / muscle (plaque motrice); test: Nerve/muscle junction model (motor end plate): isolated rat phrenic nerve / diaphragm preparation, contractions induced by indirect stimulation; conditions: for inhibition at 100 µM: Rattus norvegicus, concentration 10^-4 M, contractions induced by stimulation of the phrenic nerve (0.1 à 0.5 volts, 0.3 ms, 0.1 Hz), read-out: % INHIBITION DES CONTRACTIONS
Experimental: Le composé 1 a été testé sur un modèle de jonction nerf / muscle (plaque motrice) obtenu dans une préparation nerf phrénique / diaphragme isolé de rat (muscle strié) (Pollard B.J. et al, Br.J. Anaesth., 1988, 61, 419-424).
(§1) Ce test est prédictif d'un effet anti-rides, comme cela a été vérifié par la Demanderesse sur le diazépam, qui est à la fois actif in vivo chez l'homme et dans ce test à 10^-4 M.
Le nerf phrénique et le diaphragme sont soigneusement isolés et placés dans une cuve de 50 ml remplie de liquide de survie (liquide de Krebs Henseleit) maintenu à une température de 37°C et oxygéné à l'aide d'un mélange oxygène/CO2 (95/5).
Les variations de tension du diaphragme sont enregistrées avec une pré-charge initiale de plusieurs grammes.
Après une période de relaxation de 30 mn, le diaphragme est stimulé indirectement par l'intermédiaire du nerf phrénique.
Sur chaque préparation, l'effet du composé à tester a été évalué sur les contractions induites par stimulation indirecte via stimulation sur le nerf phrénique (0.1 à 0.5 volts, 0.3 ms, 0.1 Hz). L'alvérine, connue comme composé myorelaxant à effet anti-rides d'après la demande FR-2 798 590, est utilisée comme témoin.

[2] = target: canaux calciques de type L, site vérapamil (Rattus norvegicus, UniProt P22002); test: Calcium channel test: competitive inhibition of [3H](-) D 888 binding, rat cerebral cortex homogenates
Sequence of canaux calciques de type L, site vérapamil (P22002 whole entry): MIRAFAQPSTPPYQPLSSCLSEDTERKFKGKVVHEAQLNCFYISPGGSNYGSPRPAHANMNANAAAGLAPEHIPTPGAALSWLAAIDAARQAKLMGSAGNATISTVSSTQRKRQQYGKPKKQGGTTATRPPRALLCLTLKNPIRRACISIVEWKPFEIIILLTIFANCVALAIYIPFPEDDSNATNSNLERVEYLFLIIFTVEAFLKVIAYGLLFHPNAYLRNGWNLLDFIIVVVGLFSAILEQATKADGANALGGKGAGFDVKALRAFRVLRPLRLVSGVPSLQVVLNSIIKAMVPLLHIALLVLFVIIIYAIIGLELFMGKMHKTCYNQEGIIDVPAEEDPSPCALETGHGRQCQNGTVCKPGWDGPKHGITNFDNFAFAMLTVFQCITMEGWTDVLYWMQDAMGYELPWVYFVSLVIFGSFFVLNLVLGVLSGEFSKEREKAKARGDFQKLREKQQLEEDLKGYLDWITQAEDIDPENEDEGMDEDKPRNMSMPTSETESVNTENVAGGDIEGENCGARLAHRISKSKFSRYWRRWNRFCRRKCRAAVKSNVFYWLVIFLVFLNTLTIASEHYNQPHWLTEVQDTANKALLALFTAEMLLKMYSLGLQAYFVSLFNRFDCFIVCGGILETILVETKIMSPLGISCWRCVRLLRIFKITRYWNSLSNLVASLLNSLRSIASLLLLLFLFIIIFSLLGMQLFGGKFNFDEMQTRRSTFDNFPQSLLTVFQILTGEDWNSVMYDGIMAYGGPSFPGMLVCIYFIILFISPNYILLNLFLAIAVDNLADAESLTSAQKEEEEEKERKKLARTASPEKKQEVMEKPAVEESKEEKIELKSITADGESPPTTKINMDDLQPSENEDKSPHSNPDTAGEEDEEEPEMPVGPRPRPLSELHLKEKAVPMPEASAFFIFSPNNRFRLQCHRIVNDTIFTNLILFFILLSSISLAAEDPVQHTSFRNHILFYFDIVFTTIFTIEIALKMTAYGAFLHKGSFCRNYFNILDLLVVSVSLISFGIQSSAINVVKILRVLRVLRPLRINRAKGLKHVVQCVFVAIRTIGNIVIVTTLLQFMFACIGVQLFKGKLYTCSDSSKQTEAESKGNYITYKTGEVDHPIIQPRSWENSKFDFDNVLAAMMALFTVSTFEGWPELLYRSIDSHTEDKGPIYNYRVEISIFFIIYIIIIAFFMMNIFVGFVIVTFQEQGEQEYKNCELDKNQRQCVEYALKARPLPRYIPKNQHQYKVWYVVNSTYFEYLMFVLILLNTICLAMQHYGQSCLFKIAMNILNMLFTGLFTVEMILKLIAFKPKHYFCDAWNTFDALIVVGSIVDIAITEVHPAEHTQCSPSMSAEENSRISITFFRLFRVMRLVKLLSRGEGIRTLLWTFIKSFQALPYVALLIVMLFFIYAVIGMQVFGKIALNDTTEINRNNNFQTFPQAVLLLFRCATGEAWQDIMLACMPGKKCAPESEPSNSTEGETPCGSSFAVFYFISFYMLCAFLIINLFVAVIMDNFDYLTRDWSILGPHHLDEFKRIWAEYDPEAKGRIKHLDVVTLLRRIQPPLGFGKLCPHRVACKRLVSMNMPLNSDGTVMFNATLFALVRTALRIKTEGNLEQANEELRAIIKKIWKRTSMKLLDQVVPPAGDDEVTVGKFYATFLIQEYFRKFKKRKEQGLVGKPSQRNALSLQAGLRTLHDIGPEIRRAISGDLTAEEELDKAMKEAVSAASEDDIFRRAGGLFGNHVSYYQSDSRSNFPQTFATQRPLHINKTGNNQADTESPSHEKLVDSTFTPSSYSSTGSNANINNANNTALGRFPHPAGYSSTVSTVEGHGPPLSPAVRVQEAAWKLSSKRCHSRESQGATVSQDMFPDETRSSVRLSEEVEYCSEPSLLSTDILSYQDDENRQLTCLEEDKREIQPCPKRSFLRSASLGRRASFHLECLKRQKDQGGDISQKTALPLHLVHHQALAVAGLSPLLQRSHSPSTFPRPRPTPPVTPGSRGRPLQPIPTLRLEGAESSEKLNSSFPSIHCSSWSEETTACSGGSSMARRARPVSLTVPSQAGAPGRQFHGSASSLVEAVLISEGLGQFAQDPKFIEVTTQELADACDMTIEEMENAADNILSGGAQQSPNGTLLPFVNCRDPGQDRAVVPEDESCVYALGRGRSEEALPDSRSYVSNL
Excerpt: Le test mesure la capacité d'un produit à inhiber par compétition la fixation d'[…] de canaux calciques de type L, type Vérapamil. Ces canaux ont été identifiés au niveau des fibroblastes humains (Baumgarten LB and coll (1992), J. Biol. Chem, 267, 10524-10530 et Chen CF and coll (1988), Science, 239, 1024-1026).
Les études sont réalisées à partir d'homogénats de cortex cérébral de rat (membranes isolées présentant à leur surface notamment les canaux calciques de type L).
Les conditions expérimentales selon le protocole décrit par Reynolds I.J. et al., 1986, J. Pharmacol. Exp. Ther., 237, p.731, sont présentées dans le tableau 1 ci-dessous : Tableau 1
D888 et D600 sont les molécules de référence spécifiques des canaux calciques de type L, site vérapamil.
La liaison spécifique d'un ligand (D888 marqué) aux récepteurs (canaux calciques de type L, site vérapamil) est défini comme la différence entre la liaison totale et la liaison non spécifique déterminée en présence d'un excès de ligand non radioactif. Les résultats sont exprimés en pourcentage de liaison spécifique témoin et en pourcentage d'inhibition de cette liaison en présence des composés testés.
Les valeurs d'IC50 (concentration inhibant 50% de la liaison spécifique témoin) et du coefficient de Hill (nH) sont calculées pour les composés testés à partir des courbes de compétition selon un modèle de régression non linéaire. […]

[3] = Anti-wrinkle effect in vivo in man (verification of the predictive value of the nerve/muscle test); conditions: in vivo chez l'homme
Excerpt: as §1

Row | Compound | inhibition at 100 µM [1] [%] | IC50 ([2]; ligand [^3H](-) D 888 0.5 nM, non-specific D 600 (10 µM), 60 min. /22°C, measured in duplicate) [nM] | calcium channel inhibition compared with alvérine ([2]; conclusion from the IC50 values of Tableau 2) | activity in the nerve/muscle junction test ([1]; 10^-4 M) | activity in vivo (anti-wrinkle effect) [3]
1 | CCN(CCCc1ccccc1)CCCc1ccccc1 [Alvérine] | 100 | 693 | – | – | –
2 | CCCCCC(O)(CCCCC)CCN(CC)CCCc1ccccc1 [Composé 1, 6-[2-{ethyl-(3-phenyl-propyl)amino}-ethyl]-undecan-6-ol] | 100 | – | meilleur inhibiteur de canaux calciques que l'alvérine | – | –
3 | CN1C(=O)CN=C(c2ccccc2)c2cc(Cl)ccc21 [diazépam] | – | – | – | actif | actif
